ChEMBL document CHEMBL4507287, “Data for DCP probe MRL-650” (2021)

Columns and labels:
[1] = target: Muscle, skeletal receptor tyrosine-protein kinase (Homo sapiens) (UniProt O15146); conditions: Compound concentration 1000.0 nM
[2] = target: Tyrosine-protein kinase Lyn (Homo sapiens) (UniProt P07948); conditions: Compound concentration 1000.0 nM
[3] = target: Insulin receptor-related protein (Homo sapiens) (UniProt P14616); conditions: Compound concentration 1000.0 nM
[4] = target: G protein-coupled receptor kinase 3 (Homo sapiens) (UniProt P35626); conditions: Compound concentration 1000.0 nM
[5] = target: Ribosomal protein S6 kinase alpha-4 (Homo sapiens) (UniProt O75676); conditions: Compound concentration 1000.0 nM
[6] = system: Mast/stem cell growth factor receptor Kit (Homo sapiens), P10721 [V559D,V654A]; conditions: Compound concentration 1000.0 nM
[7] = target: Eukaryotic translation initiation factor 2-alpha kinase 1 (Homo sapiens) (UniProt Q9BQI3); conditions: Compound concentration 1000.0 nM
[8] = target: Cyclin-dependent kinase 5 (Homo sapiens) (UniProt Q00535); conditions: Compound concentration 1000.0 nM
[9] = target: Tyrosine-protein kinase CSK (Homo sapiens) (UniProt P41240); conditions: Compound concentration 1000.0 nM
[10] = system: Epidermal growth factor receptor (Homo sapiens), P00533 [T790M]; conditions: Compound concentration 1000.0 nM
[11] = target: Calcium/calmodulin-dependent protein kinase type II subunit alpha (Homo sapiens) (UniProt Q9UQM7); conditions: Compound concentration 1000.0 nM
Chain of Calcium/calmodulin-dependent protein kinase type II subunit alpha (Homo sapiens) (Q9UQM7 whole entry): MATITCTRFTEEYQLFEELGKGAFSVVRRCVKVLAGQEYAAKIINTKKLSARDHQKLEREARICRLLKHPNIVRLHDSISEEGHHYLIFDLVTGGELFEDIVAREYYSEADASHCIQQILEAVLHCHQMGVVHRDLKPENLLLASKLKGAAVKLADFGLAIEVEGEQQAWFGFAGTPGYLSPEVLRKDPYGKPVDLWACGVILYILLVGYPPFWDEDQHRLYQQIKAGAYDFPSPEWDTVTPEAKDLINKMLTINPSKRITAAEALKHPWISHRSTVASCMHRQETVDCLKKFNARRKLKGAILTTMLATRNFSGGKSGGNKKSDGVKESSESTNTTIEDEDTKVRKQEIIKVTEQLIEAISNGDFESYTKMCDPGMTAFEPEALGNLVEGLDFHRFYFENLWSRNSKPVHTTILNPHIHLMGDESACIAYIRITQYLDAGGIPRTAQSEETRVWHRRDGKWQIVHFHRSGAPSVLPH

[12] = target: Serine/threonine-protein kinase 32C (Homo sapiens) (UniProt Q86UX6); conditions: Compound concentration 1000.0 nM
[13] = target: Tyrosine-protein kinase ABL1 (Homo sapiens) (UniProt P00519); conditions: Compound concentration 1000.0 nM
[14] = target: Ribosomal protein S6 kinase alpha-5 (Homo sapiens) (UniProt O75582); conditions: Compound concentration 1000.0 nM
[15] = target: Tyrosine-protein kinase TXK (Homo sapiens) (UniProt P42681); conditions: Compound concentration 1000.0 nM
[16] = system: Receptor-type tyrosine-protein kinase FLT3 (Homo sapiens), P36888 [R834Q]; conditions: Compound concentration 1000.0 nM
[17] = target: Death-associated protein kinase 1 (Homo sapiens) (UniProt P53355); conditions: Compound concentration 1000.0 nM
[18] = target: Ephrin type-B receptor 4 (Homo sapiens) (UniProt P54760); conditions: Compound concentration 1000.0 nM
[19] = target: Serine/threonine-protein kinase 3 (Homo sapiens) (UniProt Q13188); conditions: Compound concentration 1000.0 nM
[20] = target: Vascular endothelial growth factor receptor 1 (Homo sapiens) (UniProt P17948); conditions: Compound concentration 1000.0 nM
[21] = target: Alpha-1A adrenergic receptor (Homo sapiens) (UniProt P35348); conditions: Compound concentration 10.0 uM
[22] = target: Serine/threonine-protein kinase pim-3 (Homo sapiens) (UniProt Q86V86); conditions: Compound concentration 1000.0 nM
[23] = target: Cyclin-dependent kinase 2 homolog (Plasmodium falciparum (isolate 3D7)) (UniProt P61075); conditions: Compound concentration 1000.0 nM
[24] = target: Calcium/calmodulin-dependent protein kinase type 1G (Homo sapiens) (UniProt Q96NX5); conditions: Compound concentration 1000.0 nM
[25] = target: Bone morphogenetic protein receptor type-1B (Homo sapiens) (UniProt O00238); conditions: Compound concentration 1000.0 nM
[26] = system: Receptor-type tyrosine-protein kinase FLT3 (Homo sapiens), P36888 [UNDEFINED MUTATION]; conditions: Compound concentration 1000.0 nM
[27] = target: Serine/threonine-protein kinase TAO2 (Homo sapiens) (UniProt Q9UL54); conditions: Compound concentration 1000.0 nM
[28] = target: Vascular endothelial growth factor receptor 2 (Homo sapiens) (UniProt P35968); conditions: Compound concentration 1000.0 nM
[29] = target: Receptor-type tyrosine-protein kinase FLT3 (Homo sapiens) (UniProt P36888); conditions: Compound concentration 1000.0 nM
[30] = target: Megakaryocyte-associated tyrosine-protein kinase (Homo sapiens) (UniProt P42679); conditions: Compound concentration 1000.0 nM
Chain of Megakaryocyte-associated tyrosine-protein kinase (Homo sapiens) (P42679 whole entry, the tested form may be a part): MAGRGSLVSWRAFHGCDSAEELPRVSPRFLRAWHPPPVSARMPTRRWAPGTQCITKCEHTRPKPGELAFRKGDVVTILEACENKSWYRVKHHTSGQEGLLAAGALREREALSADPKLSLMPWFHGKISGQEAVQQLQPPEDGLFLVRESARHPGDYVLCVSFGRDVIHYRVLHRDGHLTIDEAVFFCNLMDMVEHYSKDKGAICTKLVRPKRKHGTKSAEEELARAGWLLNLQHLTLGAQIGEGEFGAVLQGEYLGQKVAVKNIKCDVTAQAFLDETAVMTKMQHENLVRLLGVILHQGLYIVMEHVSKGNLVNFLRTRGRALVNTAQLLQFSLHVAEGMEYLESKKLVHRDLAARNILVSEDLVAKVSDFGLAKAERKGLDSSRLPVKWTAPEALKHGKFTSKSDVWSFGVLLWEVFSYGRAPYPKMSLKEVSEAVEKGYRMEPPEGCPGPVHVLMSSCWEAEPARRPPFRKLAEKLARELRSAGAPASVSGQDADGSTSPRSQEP

[31] = target: LIM domain kinase 2 (Homo sapiens) (UniProt P53671); conditions: Compound concentration 1000.0 nM
[32] = target: Mitogen-activated protein kinase kinase kinase 7 (Homo sapiens) (UniProt O43318); conditions: Compound concentration 1000.0 nM
[33] = target: 5-hydroxytryptamine receptor 2B (Homo sapiens) (UniProt P41595); conditions: Compound concentration 10.0 uM
[34] = target: Homeodomain-interacting protein kinase 2 (Homo sapiens) (UniProt Q9H2X6); conditions: Compound concentration 1000.0 nM
[35] = target: Activin receptor type-1B (Homo sapiens) (UniProt P36896); conditions: Compound concentration 1000.0 nM
Chain of Activin receptor type-1B (Homo sapiens) (P36896 whole entry): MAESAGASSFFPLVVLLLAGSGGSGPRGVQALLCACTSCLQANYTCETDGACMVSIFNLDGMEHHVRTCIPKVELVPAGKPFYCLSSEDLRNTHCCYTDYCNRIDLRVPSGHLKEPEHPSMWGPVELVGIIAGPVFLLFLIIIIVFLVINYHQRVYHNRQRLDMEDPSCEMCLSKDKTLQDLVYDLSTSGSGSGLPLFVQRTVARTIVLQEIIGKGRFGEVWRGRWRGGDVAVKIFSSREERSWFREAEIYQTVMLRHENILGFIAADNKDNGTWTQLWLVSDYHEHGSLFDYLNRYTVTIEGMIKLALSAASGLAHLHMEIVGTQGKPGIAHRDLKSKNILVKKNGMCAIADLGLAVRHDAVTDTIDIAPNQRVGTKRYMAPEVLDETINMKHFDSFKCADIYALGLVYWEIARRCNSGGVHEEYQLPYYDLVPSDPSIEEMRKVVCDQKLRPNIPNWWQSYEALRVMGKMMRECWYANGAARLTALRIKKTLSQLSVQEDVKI

[36] = target: Cyclin-dependent kinase 4 (Homo sapiens) (UniProt P11802); conditions: Compound concentration 1000.0 nM
Chain of Cyclin-dependent kinase 4 (Homo sapiens) (P11802 whole entry): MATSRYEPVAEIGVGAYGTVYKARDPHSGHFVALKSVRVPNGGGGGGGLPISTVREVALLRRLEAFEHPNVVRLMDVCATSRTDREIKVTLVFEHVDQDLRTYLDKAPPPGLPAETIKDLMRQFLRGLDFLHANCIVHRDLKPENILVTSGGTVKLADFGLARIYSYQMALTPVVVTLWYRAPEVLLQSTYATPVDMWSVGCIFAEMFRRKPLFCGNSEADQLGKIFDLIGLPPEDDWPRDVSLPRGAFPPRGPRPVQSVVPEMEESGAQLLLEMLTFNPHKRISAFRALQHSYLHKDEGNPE

[37] = target: Protein kinase C eta type (Homo sapiens) (UniProt P24723); conditions: Compound concentration 1000.0 nM
Chain of Protein kinase C eta type (Homo sapiens) (P24723 whole entry): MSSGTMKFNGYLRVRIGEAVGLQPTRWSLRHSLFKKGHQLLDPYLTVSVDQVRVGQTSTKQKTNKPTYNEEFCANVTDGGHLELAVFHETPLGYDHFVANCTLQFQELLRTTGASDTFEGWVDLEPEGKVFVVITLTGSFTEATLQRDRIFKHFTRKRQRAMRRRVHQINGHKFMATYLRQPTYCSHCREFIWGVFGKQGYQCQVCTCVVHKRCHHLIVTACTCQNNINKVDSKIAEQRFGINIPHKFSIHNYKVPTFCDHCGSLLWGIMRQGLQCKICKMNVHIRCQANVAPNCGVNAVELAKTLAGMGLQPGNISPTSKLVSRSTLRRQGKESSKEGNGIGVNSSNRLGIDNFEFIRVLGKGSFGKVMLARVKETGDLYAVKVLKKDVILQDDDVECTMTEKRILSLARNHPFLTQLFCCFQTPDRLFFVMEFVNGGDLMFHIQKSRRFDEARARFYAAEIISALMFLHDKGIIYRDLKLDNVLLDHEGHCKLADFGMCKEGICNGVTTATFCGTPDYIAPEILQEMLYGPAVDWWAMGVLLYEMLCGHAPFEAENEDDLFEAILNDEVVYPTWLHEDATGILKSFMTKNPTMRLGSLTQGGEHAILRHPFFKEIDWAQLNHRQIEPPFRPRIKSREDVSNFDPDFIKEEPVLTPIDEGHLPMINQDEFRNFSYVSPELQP

[38] = target: Citron Rho-interacting kinase (Homo sapiens) (UniProt O14578); conditions: Compound concentration 1000.0 nM
Chain of Citron Rho-interacting kinase (Homo sapiens) (O14578 whole entry): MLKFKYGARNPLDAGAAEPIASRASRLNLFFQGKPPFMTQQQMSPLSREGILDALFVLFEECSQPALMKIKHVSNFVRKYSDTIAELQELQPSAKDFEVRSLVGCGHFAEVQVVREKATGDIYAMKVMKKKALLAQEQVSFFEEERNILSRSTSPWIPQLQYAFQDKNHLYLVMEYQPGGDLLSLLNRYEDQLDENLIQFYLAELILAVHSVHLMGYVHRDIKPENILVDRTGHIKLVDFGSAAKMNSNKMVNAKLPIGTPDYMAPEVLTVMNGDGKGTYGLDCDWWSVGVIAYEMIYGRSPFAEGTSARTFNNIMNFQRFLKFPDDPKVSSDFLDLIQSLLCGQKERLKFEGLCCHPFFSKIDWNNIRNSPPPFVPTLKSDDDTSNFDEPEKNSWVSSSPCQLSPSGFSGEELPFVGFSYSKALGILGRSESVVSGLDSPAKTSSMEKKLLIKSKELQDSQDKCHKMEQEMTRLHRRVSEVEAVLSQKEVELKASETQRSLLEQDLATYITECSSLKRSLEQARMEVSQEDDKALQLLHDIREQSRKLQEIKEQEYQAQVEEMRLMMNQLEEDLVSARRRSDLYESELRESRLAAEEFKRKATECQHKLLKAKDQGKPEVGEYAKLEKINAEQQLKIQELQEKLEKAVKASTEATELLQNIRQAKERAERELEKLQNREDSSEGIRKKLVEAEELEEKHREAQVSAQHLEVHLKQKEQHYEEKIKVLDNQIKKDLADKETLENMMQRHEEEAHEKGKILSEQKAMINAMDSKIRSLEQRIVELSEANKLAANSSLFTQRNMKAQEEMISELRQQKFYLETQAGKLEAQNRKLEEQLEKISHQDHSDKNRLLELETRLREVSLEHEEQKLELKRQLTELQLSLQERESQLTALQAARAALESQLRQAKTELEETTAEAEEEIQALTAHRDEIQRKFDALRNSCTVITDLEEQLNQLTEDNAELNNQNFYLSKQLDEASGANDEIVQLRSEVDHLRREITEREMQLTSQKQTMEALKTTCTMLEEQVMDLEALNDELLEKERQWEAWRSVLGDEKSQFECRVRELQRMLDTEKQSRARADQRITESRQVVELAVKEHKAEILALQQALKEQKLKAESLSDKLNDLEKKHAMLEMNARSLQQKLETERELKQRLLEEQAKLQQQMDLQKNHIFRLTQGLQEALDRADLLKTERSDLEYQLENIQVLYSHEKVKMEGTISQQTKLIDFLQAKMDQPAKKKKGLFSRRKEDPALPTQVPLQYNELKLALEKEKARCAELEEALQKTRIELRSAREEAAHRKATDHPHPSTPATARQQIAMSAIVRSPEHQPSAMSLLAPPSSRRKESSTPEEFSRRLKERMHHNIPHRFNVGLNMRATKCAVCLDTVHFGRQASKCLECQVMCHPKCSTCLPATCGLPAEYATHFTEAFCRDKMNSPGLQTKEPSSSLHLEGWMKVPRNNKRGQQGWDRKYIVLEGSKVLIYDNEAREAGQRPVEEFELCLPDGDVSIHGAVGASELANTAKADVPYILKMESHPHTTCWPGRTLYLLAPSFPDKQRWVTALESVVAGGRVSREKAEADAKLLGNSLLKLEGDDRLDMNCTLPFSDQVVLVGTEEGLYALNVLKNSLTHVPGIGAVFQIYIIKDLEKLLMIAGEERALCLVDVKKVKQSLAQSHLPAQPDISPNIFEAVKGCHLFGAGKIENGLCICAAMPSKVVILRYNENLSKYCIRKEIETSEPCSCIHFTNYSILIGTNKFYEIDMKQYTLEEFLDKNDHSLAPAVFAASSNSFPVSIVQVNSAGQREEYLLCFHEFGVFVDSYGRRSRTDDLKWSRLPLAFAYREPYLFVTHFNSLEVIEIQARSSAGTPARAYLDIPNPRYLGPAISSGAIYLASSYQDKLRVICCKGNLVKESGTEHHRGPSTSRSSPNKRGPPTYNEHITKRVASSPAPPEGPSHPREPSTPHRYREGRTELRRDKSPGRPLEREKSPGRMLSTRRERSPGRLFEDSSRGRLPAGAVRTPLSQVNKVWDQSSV

[39] = target: Tyrosine-protein kinase Yes (Homo sapiens) (UniProt P07947); conditions: Compound concentration 1000.0 nM
Chain of Tyrosine-protein kinase Yes (Homo sapiens) (P07947 2-543 limits assumed): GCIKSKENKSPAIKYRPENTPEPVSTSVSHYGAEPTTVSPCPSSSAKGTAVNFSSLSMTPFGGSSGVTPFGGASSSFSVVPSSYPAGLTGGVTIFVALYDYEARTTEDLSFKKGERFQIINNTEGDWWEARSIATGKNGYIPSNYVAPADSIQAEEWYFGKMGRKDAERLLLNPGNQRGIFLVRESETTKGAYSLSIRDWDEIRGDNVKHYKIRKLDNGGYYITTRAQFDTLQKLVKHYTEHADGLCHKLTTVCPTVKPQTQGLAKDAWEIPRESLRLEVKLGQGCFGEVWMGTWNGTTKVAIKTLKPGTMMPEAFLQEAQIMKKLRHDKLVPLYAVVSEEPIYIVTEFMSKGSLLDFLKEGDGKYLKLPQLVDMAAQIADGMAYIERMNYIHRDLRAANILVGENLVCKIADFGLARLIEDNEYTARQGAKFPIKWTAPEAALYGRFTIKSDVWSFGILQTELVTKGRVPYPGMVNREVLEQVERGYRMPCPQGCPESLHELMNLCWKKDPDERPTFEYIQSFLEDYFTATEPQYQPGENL

[40] = target: Serine/threonine-protein kinase PAK 2 (Homo sapiens) (UniProt Q13177); conditions: Compound concentration 1000.0 nM
[41] = target: Tyrosine-protein kinase BTK (Homo sapiens) (UniProt Q06187); conditions: Compound concentration 1000.0 nM
[42] = target: Cyclin-dependent kinase 11B (Homo sapiens) (UniProt P21127); conditions: Compound concentration 1000.0 nM
[43] = target: Homeodomain-interacting protein kinase 3 (Homo sapiens) (UniProt Q9H422); conditions: Compound concentration 1000.0 nM
[44] = target: Fibroblast growth factor receptor 3 (Homo sapiens) (UniProt P22607); conditions: Compound concentration 1000.0 nM
[45] = system: Tyrosine-protein kinase ABL1 (Homo sapiens), P00519 [Y253F]; conditions: Compound concentration 1000.0 nM

CC(=O)Nc1c(C(C)=O)c(=O)n(C)c2nc(-c3ccc(Cl)cc3Cl)c(-c3ccc(Cl)cc3)cc12 [NAPHTHYRIDINONE]
inactive: residual activity [1] 100% | residual activity [2] 100% | residual activity [3] 100% | residual activity [4] 99% | residual activity [5] 100% | residual activity [6] 100% | residual activity [7] 68% | residual activity [8] 100% | residual activity [9] 100% | residual activity [10] 100% | residual activity [11] 100% | residual activity [12] 100% | residual activity [13] 81% | residual activity [14] 100% | residual activity [15] 100% | residual activity [16] 100% | residual activity [17] 100% | residual activity [18] 100% | residual activity [19] 100% | residual activity [20] 100% | inhibition [21] -6.63% | residual activity [22] 100% | residual activity [23] 100% | residual activity [24] 100% | residual activity [25] 100% | residual activity [26] 100% | residual activity [27] 88% | residual activity [28] 94% | residual activity [29] 100% | residual activity [30] 100% | residual activity [31] 100% | residual activity [32] 100% | inhibition [33] 1.6% | residual activity [34] 100% | residual activity [35] 94% | residual activity [36] 100% | residual activity [37] 100% | residual activity [38] 100% | residual activity [39] 100% | residual activity [40] 100% | residual activity [41] 88% | residual activity [42] 83% | residual activity [43] 97% | residual activity [44] 100% | residual activity [45] 96%

CC(=O)c1c(NS(C)(=O)=O)c2cc(-c3ccc(Cl)cc3)c(-c3ccc(Cl)cc3Cl)nc2n(C)c1=O [MRL-CB1-NC]
inactive: residual activity [1] 99% | residual activity [2] 100% | residual activity [3] 93% | residual activity [4] 100% | residual activity [5] 93% | residual activity [6] 89% | residual activity [7] 83% | residual activity [8] 100% | residual activity [9] 100% | residual activity [10] 64% | residual activity [11] 100% | residual activity [12] 100% | residual activity [13] 92% | residual activity [14] 100% | residual activity [15] 100% | residual activity [16] 100% | residual activity [17] 80% | residual activity [18] 92% | residual activity [19] 100% | residual activity [20] 100% | inhibition [21] 28.5% | residual activity [22] 100% | residual activity [23] 100% | residual activity [24] 100% | residual activity [25] 100% | residual activity [26] 87% | residual activity [27] 97% | residual activity [28] 82% | residual activity [29] 92% | residual activity [30] 83% | residual activity [31] 91% | residual activity [32] 83% | inhibition [33] -0.601% | residual activity [34] 87% | residual activity [35] 92% | residual activity [36] 94% | residual activity [37] 91% | residual activity [38] 96% | residual activity [39] 96% | residual activity [40] 100% | residual activity [41] 84% | residual activity [42] 84% | residual activity [43] 88% | residual activity [44] 100% | residual activity [45] 94%
